Values quoted from earlier work as cited in paper PMC10205807, “Cross-species comparison in nonclinical pharmacokinetics of lenvatinib by a simple HPLC with ultraviolet detection” (Scientific Reports, 2023).
Read-outs that look alike come from different tables or passages of the source.

Tests used:
[1] = set-up: method as in PMID 30514402; details: monkeys; cited from earlier work
[2] = set-up: method as in PMID 30514402; details: mice; cited from earlier work
[3] = set-up: method as in PMID 30514402; details: dogs; cited from earlier work
[4] = set-up: method as in PMID 29620050; details: dogs, intravenous; cited from earlier work
[5] = set-up: method as in PMID 29620050; details: male rats, intravenous; cited from earlier work
[6] = set-up: method as in PMID 28115222; details: dogs; cited from earlier work
[7] = set-up: method as in PMID 28115222; details: mice; cited from earlier work
[8] = set-up: method as in PMID 28115222; details: rats; cited from earlier work

Cc1cn(-c2cc(NC(=O)c3ccc(C)c(Nc4nccc(-c5cccnc5)n4)c3)cc(C(F)(F)F)c2)cn1 [nilotinib]
CLtot [1]: 10.6 mL/min/kg | Oral bioavailability [1]: 16% | Vdss [1]: 5.737 L/kg | CLtot [2]: 2.18 mL/min/kg | Oral bioavailability [2]: 50% | Vdss [2]: 0.29 L/kg | CLtot [3]: 3.17 mL/min/kg | Oral bioavailability [3]: 24% | Vdss [3]: 1.157 L/kg

COc1cc2c(Oc3ccc4[nH]c(C)cc4c3F)ccnc2cc1OCC1(N)CC1 [anlotinib]
CLtot [4]: 6.33 mL/min/kg | Vdss [4]: 6.8 L/kg | CLtot [5]: 106 mL/min/kg | Vdss [5]: 25.4 L/kg

CCOc1cc2ncc(C#N)c(Nc3ccc(OCc4ccccn4)c(Cl)c3)c2cc1NC(=O)/C=C/[C@H]1CCCN1C [pyrotinib]
CLtot [6]: 28 mL/min/kg | F [6]: 20.0% | Vdss [6]: 8.157 L/kg | CLtot [7]: 37.2 mL/min/kg | F [7]: 20.6% | Vdss [7]: 5.027 L/kg | CLtot [8]: 3.5 mL/min/kg | F [8]: 43.5% | Vdss [8]: 1.35 L/kg
